Measured values reported in PubChem BioAssay AID1745844 (Carcinogenic Potency Database (CPDB), 2022).
The source made the active and inactive calls. No rule for the calls is given here. Numbered stars: 1 amine (or outer) side, 2 acyl side, 3 side chain; on linkers, the order of the positions; unused ones are H or OH. Bridge positions count the residues as written; N and C are the ends. Square brackets hold non-standard residues; d marks the D form. Peptide text beside a SMILES is read from it. I, II: the chains in the order shown. Actinocin(1to9) = Cc1c2oc3c(C)ccc(C(=O)[*:2])c3nc-2c(C(=O)[*:1])c(N)c1=O; NMeV = CN[C@H](C(=O)O)C(C)C; Sar = CNCC(=O)O

Tested on: rodent lifetime carcinogenesis bioassay, tumor incidence TD50
Experiment: carcinogenic potency in animals, long-term in vivo studies, CPDB compilation (AID 1745844)

SMILES: CCCN(CCC)S(=O)(=O)c1ccc(C(=O)O)cc1
- TD50 (mouse, strain B6C3F1, females, by gavage, site: any site (literature study), lesion: several types, types named in the paper, dosed 103 weeks, study length 104 weeks): 498 mg/kg/day
- TD50 (mouse, strain B6C3F1, females, by gavage, site: liver, lesion: hepatocellular adenoma + hepatocellular carcinoma + neoplastic nodule, dosed 103 weeks, study length 104 weeks): 540 mg/kg/day
- TD50 (mouse, strain B6C3F1, females, by gavage, site: liver, lesion: hepatocellular adenoma + hepatocellular carcinoma, dosed 103 weeks, study length 104 weeks): 540 mg/kg/day
- TD50 (mouse, strain B6C3F1, females, by gavage, site: liver, lesion: hepatocellular adenoma, dosed 103 weeks, study length 104 weeks): 561 mg/kg/day
- TD50 (mouse, strain B6C3F1, females, by gavage, site: lung, lesion: alveolar/bronchiolar adenoma + alveolar/bronchiolar carcinoma, dosed 103 weeks, study length 104 weeks): 1980 mg/kg/day
- TD50 (mouse, strain B6C3F1, males, by gavage, site: any site (literature study), lesion: several types, types named in the paper, dosed 103 weeks, study length 104 weeks): 276 mg/kg/day
- TD50 (mouse, strain B6C3F1, males, by gavage, site: liver, lesion: hepatocellular adenoma + hepatocellular carcinoma + neoplastic nodule, dosed 103 weeks, study length 104 weeks): 731 mg/kg/day
- TD50 (mouse, strain B6C3F1, males, by gavage, site: lung, lesion: alveolar/bronchiolar adenoma + alveolar/bronchiolar carcinoma, dosed 103 weeks, study length 104 weeks): 2320 mg/kg/day
- TD50 (mouse, strain B6C3F1, males, by gavage, site: subcutaneous tissue, lesion: fibroma, dosed 103 weeks, study length 104 weeks): 2130 mg/kg/day (inactive)
- TD50 (rat, strain Fischer 344, females, by gavage, site: any site (literature study), lesion: several types, types named in the paper, dosed 103 weeks, study length 104 weeks): 1540 mg/kg/day (inactive)
- TD50 (rat, strain Fischer 344, females, by gavage, site: liver, lesion: hepatocellular adenoma + hepatocellular carcinoma + neoplastic nodule, dosed 103 weeks, study length 104 weeks): 1790 mg/kg/day
- TD50 (rat, strain Fischer 344, males, by gavage, site: any site (literature study), lesion: several types, types named in the paper, dosed 103 weeks, study length 104 weeks): 296 mg/kg/day
- TD50 (rat, strain Fischer 344, males, by gavage, site: testis, lesion: interstitial-cell adenoma, bilateral + interstitial-cell adenoma, dosed 103 weeks, study length 104 weeks): 212 mg/kg/day (inactive)

SMILES: CC[C@H](C)[C@@H]1NC(=O)[C@@H](NC(=O)c2c3nc4c(C(=O)N[C@@H]5C(=O)N[C@@H](C(C)C)C(=O)N6CCC[C@H]6C(=O)N(C)CC(=O)N(C)[C@@H](C(C)C)C(=O)O[C@@H]5C)ccc(C)c4oc-3c(C)c(=O)c2N)[C@@H](C)OC(=O)[C@H](C(C)C)N(C)C(=O)CN(C)C(=O)[C@@H]2CCCN2C1=O (I: TIP[Sar][NMeV] / II: TVP[Sar][NMeV]; ester I:1-I:C, II:1-II:C; linker I:N-II:N via Actinocin(1to9))
- TD50 (rat, strain BR 46, males, i.v., site: any site (literature study), lesion: benign tumor, dosed 52 weeks, study length 104 weeks): 2.23 mg/kg/day
- TD50 (rat, strain BR 46, males, i.v., site: any site (literature study), lesion: malignant tumor, dosed 52 weeks, study length 104 weeks): 10.8 mg/kg/day
- TD50 (rat, strain BR 46, males, i.v., site: any site (literature study), lesion: several types, types named in the paper, dosed 52 weeks, study length 104 weeks): 1.68 mg/kg/day

SMILES: CC(N)=S
- TD50 (mouse, strain ICR, males, in feed, site: liver, lesion: hepatocellular carcinoma, dosed 40 weeks, study length 88 weeks): 15.3 mg/kg/day
- TD50 (mouse, strain ICR, males, in feed, site: liver, lesion: hyperplastic nodule, dosed 40 weeks, study length 88 weeks): 12 mg/kg/day
- TD50 (mouse, strain Swiss, females, in feed, site: liver, lesion: hepatoma, dosed 65 weeks, study length 65 weeks): 5.36 mg/kg/day
- carcinogen call (mouse, strain Swiss, males, in feed, site: liver, lesion: hepatoma, dosed 65 weeks, study length 65 weeks): positive
- TD50 (rat, strain Donryu, males, in feed, site: liver, lesion: hepatocellular carcinoma, trabecular, dosed 40 weeks, study length 80 weeks): 21.8 mg/kg/day
- TD50 (rat, strain Donryu, males, in feed, site: liver, lesion: papillary adenocarcinoma, dosed 40 weeks, study length 80 weeks): 27.6 mg/kg/day
- TD50 (rat, strain Donryu, males, in feed, site: liver, lesion: several types, types named in the paper, dosed 40 weeks, study length 80 weeks): 11.5 mg/kg/day

SMILES: CCCCCCC(=O)C/C=C/CCCCCCCC(=O)OC
- TD50 (mouse, strain ST/a, both sexes, in feed, site: all sites, lesion: malignant lymphoma, dosed 42 weeks, study length 84 weeks): 2940 mg/kg/day (inactive)

SMILES: CNC(=O)ON=CC(C)(C)SC
- carcinogen call (mouse, strain B6C3F1, females, in feed, site: any site (literature study), lesion: several types, types named in the paper, dosed 103 weeks, study length 103 weeks): negative (inactive)
- TD50 (mouse, strain B6C3F1, females, in feed, site: liver, lesion: hepatocellular adenoma + hepatocellular carcinoma + neoplastic nodule, dosed 103 weeks, study length 103 weeks): 52.7 mg/kg/day
- TD50 (mouse, strain B6C3F1, males, in feed, site: any site (literature study), lesion: several types, types named in the paper, dosed 103 weeks, study length 103 weeks): 1.74 mg/kg/day (inactive)
- TD50 (mouse, strain B6C3F1, males, in feed, site: liver, lesion: hepatocellular adenoma + hepatocellular carcinoma + neoplastic nodule, dosed 103 weeks, study length 103 weeks): 2.83 mg/kg/day
- TD50 (mouse, strain B6C3F1, males, in feed, site: lung, lesion: alveolar/bronchiolar adenoma + alveolar/bronchiolar carcinoma, dosed 103 weeks, study length 103 weeks): 14.8 mg/kg/day
- carcinogen call (rat, strain Fischer 344, females, in feed, site: any site (literature study), lesion: several types, types named in the paper, dosed 103 weeks, study length 105 weeks): negative (inactive)
- TD50 (rat, strain Fischer 344, males, in feed, site: any site (literature study), lesion: several types, types named in the paper, dosed 103 weeks, study length 105 weeks): 10.4 mg/kg/day (inactive)
- TD50 (rat, strain Fischer 344, males, in feed, site: liver, lesion: hepatocellular adenoma + hepatocellular carcinoma + neoplastic nodule, dosed 103 weeks, study length 105 weeks): 1.33 mg/kg/day

SMILES: CC(=O)C(N=Nc1ccc(Cl)cc1Cl)C(=O)Nc1ccc(-c2ccc(NC(=O)C(N=Nc3ccc(Cl)cc3Cl)C(C)=O)c(C)c2)cc1C (centres undefined)
- TD50 (mouse, strain NMRI, both sexes, in feed, site: any site (literature study), lesion: one or several types, types not named, dosed 104 weeks, study length 104 weeks): 11700 mg/kg/day (inactive)
- TD50 (rat, strain Sprague-Dawley, both sexes, in feed, site: any site (literature study), lesion: one or several types, types not named, dosed 104 weeks, study length 104 weeks): 13700 mg/kg/day (inactive)
